Measurements from patent US20220152077A1 (THE UNIVERSITY OF WARWICK, priority 2019, published 2022).
“Also recorded” adds a separate entry of the source.

Experiments:
Gob = test: cAMP accumulation in PTX-pre-treated CHO-K1-hA1R cells transfected with PTX-insensitive Gob; assay type: cell-based, human
Experimental: (§1) Cells were then incubated for 24 hours before addition of 100 ng/ml PTX, to inhibit activity of endogenous Gαi/o, and then incubated for a further 16-18 hours. Transfected cells were then assayed as per cAMP inhibition experiments, but co-stimulated with agonist and 100 nM forskolin.
(§2) Data Analysis. […] Statistical significance was tested as indicated in the text using paired or unpaired t-tests or one-way or two-way ANOVAs with repeated measures (RM) as appropriate. Bonferroni corrections for multiple comparisons were performed. All in vitro cell signalling assay data was analysed using Prism 7.0e (Graphpad software, San Diego, Calif.), with all concentration-response curves being fitted using a 3 parameter logistic equation to calculate response range and IC50. All cAMP data was normalised to a forskolin concentration-response curve ran in parallel to each assay. […] Radioligand displacement curves were fitted to the one-site competition binding equation yielding log Ki values. […] To determine the extent of ligand-induced recruitment of β-arrestin2-YFP to either the A1R or A3R, the BRET signal was calculated by subtracting the 530 nm/450 nm emission for vehicle-treated cells from ligand-treated cells (ligand-induced ΔBRET). ΔBRET for each concentration at 5 minutes (maximum response) was used to produce concentration-response curves.

human A1R = molecular target: T1, human A1R (Homo sapiens, UniProt P30542); test: BRET assay for β-arrestin2 recruitment in HEK 293 cells; assay type: cell-based; conditions: data not shown
T1 sequence (P30542 1-326): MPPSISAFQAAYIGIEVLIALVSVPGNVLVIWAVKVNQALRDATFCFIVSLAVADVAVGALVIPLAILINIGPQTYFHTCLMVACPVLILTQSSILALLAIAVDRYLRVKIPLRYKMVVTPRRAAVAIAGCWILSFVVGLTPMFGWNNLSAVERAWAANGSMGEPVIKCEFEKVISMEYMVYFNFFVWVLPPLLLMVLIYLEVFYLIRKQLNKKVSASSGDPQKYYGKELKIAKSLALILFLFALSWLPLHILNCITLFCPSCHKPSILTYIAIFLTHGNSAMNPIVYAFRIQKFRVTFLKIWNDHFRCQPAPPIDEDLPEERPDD
Experimental: as §2

[1] = test system: membrane potential of pyramidal cells; test: Whole cell current clamp recording of membrane potential, CA1 pyramidal cells; assay type: cell-based, rat
Experimental: (§3) Preparation of hippocampal slices: Sagittal slices of hippocampus (300-400 μm) were prepared from male Sprague Dawley rats, at postnatal days 12 to 20. Rats were kept on a 12-hour light-dark cycle with slices made 90 minutes after entering the light cycle. […] The brain was removed, cut down the mid line and the two sides of the brain stuck down to a metal base plate. […] Slices were stored at 34° C. for 1 to 6 hours in aCSF (1 mM MgCl2, 2 mM CaCl2) before use.
Whole cell patch clamp recording from hippocampal pyramidal cells: A slice was transferred to the recording chamber and perfused at 3 mL/min with aCSF at 32±0.5° C. Slices were visualised using IR-DIC optics with an Olympus BX151W microscope (Scientifica) and a CCD camera (Hitachi). […] Voltage and current recordings were obtained using an Axon Multiclamp 700B amplifier (Molecular Devices, USA) and digitised at 20 KHz. Data acquisition and analysis was performed using Pclamp 10 (Molecular Devices). For voltage clamp experiments, CA1 pyramidal cells were held at −60 mV. Peptides to interfere with G protein signalling were introduced via the patch pipette into the recorded cell.

[2] = test system: seizure activity induced in hippocampal slices; test: Seizure model in hippocampal slices (no added Mg2+, 6 mM K+ aCSF); assay type: cell-based, rat; conditions: adenosine 20-100 μM, NECA 300 nM, CPA 300 nM, BnOCPA 300 nM to 1 μM
Experimental: as §3
Seizure model: Seizure activity was induced in hippocampal slices using aCSF which contained no added Mg^2+ and with the total K^+ concentration increased to 6 mM with KCl. Removal of extracellular Mg^2+ facilitates NMDA receptor activation producing long lasting EPSPS, which can sum together to produce tonic activation. Increasing the extracellular concentration of K^+ depolarises neurons leading to firing and release of glutamate to sustain activity. Both the increase in K^+ concentration and removal of Mg^2+ are required to produce spontaneous activity in hippocampal slices. Spontaneous activity was measured with an aCSF-filled microelectrode placed within stratum radiatum in CA1.

[3] = test system: synaptic transmission in the hippocampus; test: Extracellular fEPSP recording in hippocampal slices (synaptic transmission); assay type: cell-based, rat; conditions: rat hippocampal slices, CA1; read-out: IC50, inhibition of synaptic transmission (fEPSP slope)
Experimental: as §3
Extracellular recording: A slice was transferred to the recording chamber, submerged in aCSF and perfused at 4 to 6 mL/min (32° C.). The slice was placed on a grid allowing perfusion above and below the tissue and all tubing was gas tight (to prevent loss of oxygen). For extracellular recording, an aCSF filled microelectrode was placed on the surface of stratum radiatum in CA1. […] For fEPSPs a 10 to 20 minute baseline was recorded at a stimulus intensity that gave 40 to 50% of the maximal response. […] For fEPSP slope, a 1 ms linear region after the fibre volley was measured. Extracellular recordings were made independently on two electrophysiology rigs.
Statistical significance was tested using the unpaired t-test and one-way and two-way ANOVAs with Bonferroni correction for multiple comparisons.
as §2

[4] = test system: synaptic transmission in spinal nociceptive afferents; test: Dorsal root afferent-evoked EPSPs in dorsal horn neurones, rat spinal cord slices; assay type: cell-based; conditions: rat lumbar spinal cord slices, 0.1 Hz
Experimental: Spinal cord slice preparation: Adult male Sprague-Dawley rats, aged 8-12 weeks (260-280 g), were housed in an air-conditioned room on a 12 hour light/dark cycle with food and water available ad libitum. Rats were terminally anaesthetized using isofluorane and decapitated. […] A laminectomy was performed and the spinal cord and associated roots gently dissected and teased out of the spinal column and surrounding tissues. Dura and pia mater and ventral roots were subsequently removed with fine forceps and the spinal cord hemisected. Care was taken to ensure dorsal root inputs to the spinal cord were maintained. The hemisected spinal cord-dorsal root preparations were secured to a tissue slicer and spinal cord slices (400-450 μm thick) with dorsal roots attached cut in chilled (<4° C.) high sucrose aCSF using a Leica VT1000s microtome. Slices were transferred to a small beaker containing ice-cold standard aCSF (see below) and rapidly warmed to 35±1° C. in a temperature-controlled water bath over a 20 minute period, then subsequently removed and maintained at room temperature (22±2° C.) prior to electrophysiological recording.
Spinal cord electrophysiological recording: For electrophysiological recording, a spinal cord slice was transferred to a custom-built chamber. […]

human (h) A1R = molecular target: T2, human (h) A1R (Homo sapiens, UniProt P30542); test: Radioligand binding, [3H]DPCPX, membranes of CHO-K1-hA1R cells; conditions: displacement of [3H]DPCPX
T2 sequence (P30542 1-326): T1 sequence (P30542 1-326)
Experimental: Radioligand binding. Radioligand displacement assays were conducted using crude membrane preparations (100 μg protein per tube) acquired from homogenisation of CHO-K1-hA1R cells in ice-cold buffer (2 mM MgCl2, 20 mM HEPES, pH 7.4). […] Non-specific binding was determined in the presence of 10 μM DPCPX. […] Free radioligand was separated from bound radioligand by filtration through Whatman® glass microfiber GF/B 25 mm filters (Sigma-Aldrich). Each filter was then placed in a Sterilin™ scintillation vial and radioactivity determined by: addition of 4 mL of Ultima Gold XR liquid scintillant (PerkinElmer), overnight incubation at room temperature and the retained radioactivity determined using a Beckman Coulter LS 6500 Multi-purpose scintillation counter (Beckman Coulter Inc.; Indiana, USA).
Data Analysis. […] Statistical significance was tested as indicated in the text using paired or unpaired t-tests or one-way or two-way ANOVAs with repeated measures (RM) as appropriate. Bonferroni corrections for multiple comparisons were performed. All in vitro cell signalling assay data was analysed using Prism 7.0e (Graphpad software, San Diego, Calif.), with all concentration-response curves being fitted using a 3 parameter logistic equation to calculate response range and IC50. All cAMP data was normalised to a forskolin concentration-response curve ran in parallel to each assay. […]

[5] = test system: urethane-anaesthetised, spontaneously breathing adult rats; test: In vivo anaesthetised rat preparation, respiration
From the text: In vivo anaesthetised rat preparation for cardiorespiratory recordings: Anaesthesia was induced in adult male Sprague Dawley rats (230-330 g) with isofluorane (2-4%; Piramal Healthcare). The femoral vein was catheterised for drug delivery. Anaesthesia was maintained with urethane (1.2-1.7 g/kg; Sigma) in sterile saline delivered via the femoral catheter. The femoral artery was catheterised and connected to a pressure transducer (Digitimer) to record arterial blood pressure. […] The rats were then allowed to stabilise before the experiments began. […] Arterial blood pressure recordings were used to derive heart rate (HR: beats·minute^−1; BPM), and to calculate mean arterial blood pressure (MAP: Diastolic pressure+⅓*[Systolic Pressure−Diastolic pressure]). Airflow measurements were used to calculate: tidal volume (VT; mL; pressure sensors were calibrated with a 3 mL syringe), and respiratory frequency (f; breaths·min-1; BrPM). Minute ventilation (VE; mL·min-1) was calculated as f×VT.
Adult male Sprague Dawley rats (400-500 g) were anaesthetised with urethane and instrumented as described above, with the exception that the arterial cannulation was not performed.
After a 20 minutes recovery period CPA (6.3 μg·kg^−1) was administered. All injections were administered IV as a 350 μl·kg^−1 bolus. Changes in f, VT, and VE were measured. If the dosing occurred close to a respiratory event such as a sigh a second IV dose was administered, with 20 minute recovery periods either side of the injection.
One-way ANOVAs, with repeated measures as appropriate, and with Bonferroni correction for multiple comparisons were used. Statistical significance for the effects of IV saline was tested using paired t-tests. Data are reported throughout as mean±SEM and n values are reported for each experiment. […] The significance level was set at P<0.05, with actual P values reported in the figure legends and summaries, by way of abbreviations and asterisks, on the graphs: ns, not significant; * P<0.05; **, P<0.02; ***, P<0.001; ****, P<0.0001.

isolated frog heart = test: Frog heart preparation, heart rate; set-up: species or system Xenopus leavis; conditions: adenosine 30 μM, BnOCPA 300 nM
Experimental: Frog heart preparation: Xenopus […] frogs (young adult males) were supplied from Portsmouth Xenopus Resource Centre. Frogs were euthanized with MS222 (0.2% at a pH of 7), decapitated and pithed. The animals were dissected to reveal the heart and the pericardium carefully removed. Heart contractions were measured with a force transducer (AD instruments). Heart rate was acquired via a PowerLab […] (AD instruments) controlled by LabChart 7 (AD instruments). The heart was regularly washed with ringer and drugs were applied directly to the heart.

Goa = assay type: cell-based, human; conditions: PTX-treated cells
Experimental: as §1, §2

[6] = test system: urethane-anaesthetised, spontaneously breathing adult rats; test: In vivo anaesthetised rat preparation, heart rate and mean arterial blood pressure; conditions: IV; adenosine 1 mg·kg^−1, BnOCPA 10 μg·kg^−1, CPA 420 ng·kg^−1
[7] = IV bolus, BnOCPA 8.3 ug/kg, CPA 6.3 μg·kg^−1

For OC[C@H]1O[C@@H](n2cnc3c(NC4CCCC4)ncnc32)[C@H](O)[C@@H]1O [CPA, N-Cyclopentyladenosine], which “inhibition of cAMP accumulation via Gob” value (Gob) is on record?
The value was “inhibit cAMP accumulation through coupling to Gob”.

And the “β-arrestin recruitment at the A1R” value (human A1R)?
Its value is “no β-arrestin recruitment”.

What about the “mean hyperpolarisation by CPA in the presence of BnOCPA” value ([1]; CPA 300 nM after BnOCPA 300 nM, 10 minutes) of the same molecule?
The value was 2.7±2 mV.

And the “membrane potential after agonist” value ([1]; adenosine 100 μM, CPA 300 nM)?
The value was −71.3±1.4 mV.

And the “mean change of membrane potential (hyperpolarisation)” value ([1]; adenosine 100 μM, CPA 300 nM, BnOCPA 300 nM-1 μM)?
The value was −7.3±0.85 mV.

And the “effect on membrane potential” value ([1]; example traces, CA1 pyramidal cells)?
Its value is “hyperpolarised the membrane potential”.

And the “effect on seizure activity” value [2]?
Its value is “completely suppressed neuronal firing; also recorded: abolished seizure activity”.

And the IC50 [3]?
The IC50 was 11.8 ± 2.7 nM.

What about the “effect on dorsal root afferent-evoked EPSPs” value [4] of the same molecule?
The value was “significant reduction in amplitude of the EPSPs in CPA, comparable to that of BnOCPA”.

What about the “binding affinity at the A1R (comparison)” value (human (h) A1R) of the same molecule?
The value was “equal affinity”.

And the “minute ventilation (VE) after injection” value [5, 7]?
Its value is 99 ± 19 mL/min.

What about the “respiratory frequency (f) after injection” value [5, 7] of the same molecule?
Its value is 108±10 BrPM.

What about the “tidal volume (VT) after injection” value [5, 7] of the same molecule?
Its value is 0.8 ± 0.1 mL.

What about the effect on respiration ([5]; intravenous injection) of the same molecule?
The effect on respiration was “caused significant respiratory depression”.

What about the “effect on isolated frog heart rate” value (isolated frog heart) of the same molecule?
The value was “reduced the isolated frog heart rate similar to adenosine”.

And the “reduction / change of heart rate” value (isolated frog heart; CPA)?
The value was 6.2±0.5 BPM.

And the “activation of / coupling to Goa” value (Goa)?
The value was “coupled to a range of Gi/o subunits, and in particular Goa”.

What about the “change of HR” value [6] of the same molecule?
Its value is “about 50%”.

And the “heart rate (HR) after injection” value [6]?
Its value is 207±29 BPM.

What about the “mean arterial blood pressure (MAP) after injection” value [6] of the same molecule?
Its value is 51±5 mmHg.
